In paper PMC10620989, “Going beyond Binary: Rapid Identification of Protein–Protein Interaction Modulators Using a Multifragment Kinetic Target-Guided Synthesis Approach” (Journal of Medicinal Chemistry, 2023):
“And” between values parts separate entries of the source, which are not always exact repeats. Equal entries are not always repeated. Where two headings read alike, the source gives them in different places.

Experiments:
GST-Bcl-XL = GST-Bcl-XL (Homo sapiens, UniProt Q07817); assay: Fluorescence polarization assay, GST-Bcl-XL / fluorescein-labeled Bak BH3 peptide; assay type: binding; details: FP, GST-Bcl-XL and fluorescein-labeled Bak BH3 peptide; ND = not detected
GST-Bcl-XL, sequence (Q07817 whole entry, the tested form may be a part): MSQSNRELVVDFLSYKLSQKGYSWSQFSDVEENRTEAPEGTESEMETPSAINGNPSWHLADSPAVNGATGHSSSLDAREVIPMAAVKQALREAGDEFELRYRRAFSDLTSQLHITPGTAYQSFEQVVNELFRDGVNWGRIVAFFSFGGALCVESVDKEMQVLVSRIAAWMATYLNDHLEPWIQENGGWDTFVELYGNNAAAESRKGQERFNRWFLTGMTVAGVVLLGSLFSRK

Mcl-1 [1] = biological target: T1, Mcl-1 (Mus musculus, UniProt P97287); assay: Multifragment KTGS screen against Mcl-1 (5 TA x 38 SZ per well), LC-MS/MS; details: multifragment KTGS, 190 combinations per well, 10 μM Mcl-1, 20 μM each fragment, pH 7.4, 37 °C, 10 h; peak area with protein / without protein
T1 sequence (P97287 whole entry, the tested form may be a part): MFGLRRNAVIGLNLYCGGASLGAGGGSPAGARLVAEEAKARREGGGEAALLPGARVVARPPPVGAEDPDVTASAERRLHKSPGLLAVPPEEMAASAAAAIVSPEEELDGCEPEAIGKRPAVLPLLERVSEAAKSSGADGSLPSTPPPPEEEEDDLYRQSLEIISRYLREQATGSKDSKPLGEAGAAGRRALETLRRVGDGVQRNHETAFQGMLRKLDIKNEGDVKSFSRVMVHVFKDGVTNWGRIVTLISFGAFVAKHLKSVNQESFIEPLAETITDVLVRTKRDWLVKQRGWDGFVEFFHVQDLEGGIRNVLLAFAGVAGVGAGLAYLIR

[2] = biological target: GST-tagged mouse Mcl-1-(152–309) (Mus musculus, UniProt P97287); assay: Fluorescence polarization competitive binding assay, GST-Mcl-1 / FITC-Bim-BH3; design: selectivity index: reference not given here; details: for inhibition at 50 µM: compound at 50 µM
GST-tagged mouse Mcl-1-(152–309), sequence (P97287 152-309): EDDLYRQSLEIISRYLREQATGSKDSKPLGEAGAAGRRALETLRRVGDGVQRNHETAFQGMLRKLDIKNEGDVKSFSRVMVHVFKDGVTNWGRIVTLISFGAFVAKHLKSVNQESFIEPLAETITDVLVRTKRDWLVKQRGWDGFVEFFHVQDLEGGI

Mcl-1 [3] = biological target: T1, Mcl-1; assay: Binary KTGS incubation (1 TA x 1 SZ) with Mcl-1, LC-MS/MS; details: binary incubation mixtures with and without Mcl-1
[4] = FP, GST-Mcl-1 and fluorescein-labeled Bim BH3 peptide, read-out: IC50 on Mcl-1

O=C(NS(=O)(=O)c1ccc(NCCSc2ccccc2)c([N+](=O)[O-])c1)c1ccc2c(ccn2Cc2ccc(C(F)(F)F)cc2C(F)(F)F)c1 [SZ4TA30, O=C(NS(C1=CC=C(NCCSC2=CC=CC=C2)C([N+]([O-])=O)=C1)(=O)=O)C3=CC(C=CN4CC5=CC=C(C(F)(F)F)C=C5C(F)(F)F)=C4C=C3]
IC50 (GST-Bcl-XL): > 50 µM
Amplification coefficient 5TA x 38SZ (Mcl-1 [1]): 20
IC50 [2, 4]: 26.1 µM
inhibition at 50 µM ([2]; FP): 80.7%
Amplification coefficient 1TA x 1SZ (Mcl-1 [3]): 4

O=C(NS(=O)(=O)c1ccc(CNc2cccc([N+](=O)[O-])c2)cc1)c1ccc(CN2C(=O)C(c3ccc(F)cc3F)=C(c3ccc(F)cc3F)C2=O)cc1 [SZ12TA42, O=C(NS(C1=CC=C(CNC2=CC=CC([N+]([O-])=O)=C2)C=C1)(=O)=O)C3=CC=C(CN4C(C(C5=C(F)C=C(F)C=C5)=C(C6=CC=C(F)C=C6F)C4=O)=O)C=C3]
IC50 on Bcl-XL (GST-Bcl-XL): below the detectable threshold
Amplification coefficient 5TA x 38SZ (Mcl-1 [1]): 9
IC50 [2, 4]: 13.6 µM
inhibition at 50 µM ([2]; FP): 89.4%
Amplification coefficient 1TA x 1SZ (Mcl-1 [3]): 6

COc1ccc(Cc2ccc(C(=O)NS(=O)(=O)c3ccc(CN(CCSc4ccccc4)Cc4ccc5c(c4)OCO5)cc3)cc2)c(OC)c1OC [SZ31TA24, O=C(NS(C1=CC=C(CN(CC2=CC(OCO3)=C3C=C2)CCSC4=CC=CC=C4)C=C1)(=O)=O)C5=CC=C(CC6=C(OC)C(OC)=C(OC)C=C6)C=C5]
IC50 on Bcl-XL (GST-Bcl-XL): below the detectable threshold
Amplification coefficient 5TA x 38SZ (Mcl-1 [1]): 7
IC50 [2, 4]: 20 µM
inhibition at 50 µM ([2]; FP): 82.4%
Amplification coefficient 1TA x 1SZ (Mcl-1 [3]): 15

O=C(NS(=O)(=O)c1ccc(NCCSc2ccccc2)c([N+](=O)[O-])c1)c1ccc(CCc2ccccn2)cc1 [SZ4TA17, O=C(NS(C1=CC=C(NCCSC2=CC=CC=C2)C([N+]([O-])=O)=C1)(=O)=O)C3=CC=C(CCC4=NC=CC=C4)C=C3]
IC50 (GST-Bcl-XL): 2.1 µM and 2.08 µM
Amplification coefficient 5TA x 38SZ (Mcl-1 [1]): 8
IC50 [2, 4]: 61 µM and 60.6 µM
inhibition at 50 µM ([2]; FP): 44.7%
selectivity index ([2]; quotient of the IC50 toward Bcl-XL over the IC50 toward Mcl-1): 0.03
Amplification coefficient 1TA x 1SZ (Mcl-1 [3]): 10

Cc1noc(C)c1-c1ccc(S(=O)(=O)NC(=O)c2ccc(CN3C(=O)C(c4ccc(F)cc4F)=C(c4ccc(F)cc4F)C3=O)cc2)cc1 [SZ32TA42, O=C(NS(C1=CC=C(C2=C(C)ON=C2C)C=C1)(=O)=O)C3=CC=C(CN4C(C(C5=C(F)C=C(F)C=C5)=C(C6=CC=C(F)C=C6F)C4=O)=O)C=C3]
IC50 (GST-Bcl-XL): 43.8 µM
Amplification coefficient 5TA x 38SZ (Mcl-1 [1]): 10
IC50 [2, 4]: 19.1 µM
inhibition at 50 µM ([2]; FP): 91%
Amplification coefficient 1TA x 1SZ (Mcl-1 [3]): 6

O=C(Cn1c2ccccc2c2ccccc21)NS(=O)(=O)c1ccc(CN(CCSc2ccccc2)Cc2ccc3c(c2)OCO3)cc1 [SZ31TA15, O=C(NS(C1=CC=C(CN(CC2=CC(OCO3)=C3C=C2)CCSC4=CC=CC=C4)C=C1)(=O)=O)CN5C(C=CC=C6)=C6C7=C5C=CC=C7]
IC50 on Bcl-XL (GST-Bcl-XL): below the detectable threshold
Amplification coefficient 5TA x 38SZ (Mcl-1 [1]): 72
IC50 [2, 4]: 14 µM
inhibition at 50 µM ([2]; FP): 80.7%
Amplification coefficient 1TA x 1SZ (Mcl-1 [3]): 6

COc1cccc(CN(CCSc2ccccc2)Cc2ccc(S(=O)(=O)NC(=O)c3cccc4ccccc34)cc2)c1 [SZ17TA7, O=C(NS(C1=CC=C(CN(CC2=CC(OC)=CC=C2)CCSC3=CC=CC=C3)C=C1)(=O)=O)C4=C(C=CC=C5)C5=CC=C4]
IC50 (GST-Bcl-XL): 72 µM
Amplification coefficient 5TA x 38SZ (Mcl-1 [1]): 10
IC50 [2, 4]: 20.1 µM
inhibition at 50 µM ([2]; FP): 87.3%
Amplification coefficient 1TA x 1SZ (Mcl-1 [3]): 12

Cc1nc(-c2ccccc2)sc1C(=O)NS(=O)(=O)c1ccc(CN(CCSc2ccccc2)Cc2c(F)cccc2Cl)cc1 [SZ15TA3, O=C(NS(C1=CC=C(CN(CCSC2=CC=CC=C2)CC3=C(F)C=CC=C3Cl)C=C1)(=O)=O)C4=C(C)N=C(C5=CC=CC=C5)S4]
IC50 (GST-Bcl-XL): 36.4 µM
Amplification coefficient 5TA x 38SZ (Mcl-1 [1]): 10
inhibition at 50 µM ([2]; FP): 95.9%
IC50 ([2]; IC50 on Mcl-1): 5.8 µM
Amplification coefficient 1TA x 1SZ (Mcl-1 [3]): 5

O=C(NS(=O)(=O)c1ccc(CN(CCSc2ccccc2)Cc2c(F)cccc2Cl)cc1)c1ccc(CCc2ccccn2)cc1 [SZ15TA17, O=C(NS(C1=CC=C(CN(CCSC2=CC=CC=C2)CC3=C(F)C=CC=C3Cl)C=C1)(=O)=O)C4=CC=C(CCC5=NC=CC=C5)C=C4]
IC50 (GST-Bcl-XL): 55.9 µM
Amplification coefficient 5TA x 38SZ (Mcl-1 [1]): 7
inhibition at 50 µM ([2]; FP): 89.5%
IC50 ([2]; IC50 on Mcl-1): 20.2 µM
Amplification coefficient 1TA x 1SZ (Mcl-1 [3]): 7

O=C(NS(=O)(=O)c1ccc(CN(CCSc2ccccc2)Cc2c(F)cccc2Cl)cc1)c1ccccc1 [SZ15TA1, O=C(NS(C1=CC=C(CN(CCSC2=CC=CC=C2)CC3=C(F)C=CC=C3Cl)C=C1)(=O)=O)C4=CC=CC=C4]
IC50 (GST-Bcl-XL): 29.1 µM
Amplification coefficient 5TA x 38SZ (Mcl-1 [1]): 13
inhibition at 50 µM ([2]; FP): 92.5%
IC50 ([2]; IC50 on Mcl-1): 9.7 µM
Amplification coefficient 1TA x 1SZ (Mcl-1 [3]): 5

NS(=O)(=O)c1ccc(CN(CCSc2ccccc2)Cc2ccc(S(=O)(=O)NC(=O)Cn3c4ccccc4c4ccccc43)cc2)cc1 [SZ10TA15, O=C(NS(C1=CC=C(CN(CC2=CC=C(S(=O)(N)=O)C=C2)CCSC3=CC=CC=C3)C=C1)(=O)=O)CN4C(C=CC=C5)=C5C6=C4C=CC=C6]
Amplification coefficient 5TA x 38SZ (Mcl-1 [1]): 10
inhibition at 50 µM ([2]; FP): 37.4%
Amplification coefficient 1TA x 1SZ (Mcl-1 [3]): 8

NS(=O)(=O)c1ccc(CN(CCSc2ccccc2)Cc2ccc(S(=O)(=O)NC(=O)c3ccc(-c4ccccn4)cc3)cc2)cc1 [SZ10TA25, O=C(NS(C1=CC=C(CN(CCSC2=CC=CC=C2)CC3=CC=C(S(=O)(N)=O)C=C3)C=C1)(=O)=O)C4=CC=C(C5=NC=CC=C5)C=C4]
Amplification coefficient 5TA x 38SZ (Mcl-1 [1]): 12
inhibition at 50 µM ([2]; FP): 93.6%
Amplification coefficient 1TA x 1SZ (Mcl-1 [3]): 5

CC(C)(C)c1ccc(-c2ccc(S(=O)(=O)NC(=O)c3ccc4c(ccn4Cc4ccc(C(F)(F)F)cc4C(F)(F)F)c3)cc2)cc1 [SZ11TA30, O=C(NS(C1=CC=C(C2=CC=C(C(C)(C)C)C=C2)C=C1)(=O)=O)C3=CC(C=CN4CC5=CC=C(C(F)(F)F)C=C5C(F)(F)F)=C4C=C3]
Amplification coefficient 5TA x 38SZ (Mcl-1 [1]): 12
inhibition at 50 µM ([2]; FP): 63.6%
Amplification coefficient 1TA x 1SZ (Mcl-1 [3]): 7

CC1(C)CCN(c2ccc(C(=O)NS(=O)(=O)c3ccc(CNc4cccc([N+](=O)[O-])c4)cc3)cc2)CC1 [SZ12TA2, O=C(NS(C1=CC=C(CNC2=CC=CC([N+]([O-])=O)=C2)C=C1)(=O)=O)C(C=C3)=CC=C3N4CCC(C)(C)CC4]
Amplification coefficient 5TA x 38SZ (Mcl-1 [1]): 7
inhibition at 50 µM ([2]; FP): 54.1%
Amplification coefficient 1TA x 1SZ (Mcl-1 [3]): 4

O=C(NS(=O)(=O)c1ccc(CN(CCSc2ccccc2)Cc2ccc3c(c2)OCO3)cc1)c1ccc(OC(F)(F)F)cc1 [SZ31TA8, O=C(NS(C1=CC=C(CN(CCSC2=CC=CC=C2)CC3=CC(OCO4)=C4C=C3)C=C1)(=O)=O)C5=CC=C(OC(F)(F)F)C=C5]
Amplification coefficient 5TA x 38SZ (Mcl-1 [1]): 7
IC50 [2, 4]: 5.9 µM
inhibition at 50 µM ([2]; FP): > 99%
Amplification coefficient 1TA x 1SZ (Mcl-1 [3]): 4

COc1cccc(CN(CCSc2ccccc2)Cc2ccc(S(=O)(=O)NC(=O)c3ccc(-c4ccccn4)cc3)cc2)c1 [SZ17TA25, O=C(NS(C1=CC=C(CN(CCSC2=CC=CC=C2)CC3=CC(OC)=CC=C3)C=C1)(=O)=O)C4=CC=C(C5=NC=CC=C5)C=C4]
Amplification coefficient 5TA x 38SZ (Mcl-1 [1]): 7
inhibition at 50 µM ([2]; FP): 93.6%
Amplification coefficient 1TA x 1SZ (Mcl-1 [3]): 4

COc1cc2c(cc1OC)C(c1ccccc1)N(Cc1ccc(S(=O)(=O)NC(=O)CCCN3C(=O)C(c4ccc(F)cc4F)=C(c4ccc(F)cc4F)C3=O)cc1)CC2 (stereo not shown) [SZ8TA20, O=C(NS(C1=CC=C(CN2CCC(C=C(OC)C(OC)=C3)=C3C2C4=CC=CC=C4)C=C1)(=O)=O)CCCN5C(C(C6=C(F)C=C(F)C=C6)=C(C7=CC=C(F)C=C7F)C5=O)=O]
Amplification coefficient 5TA x 38SZ (Mcl-1 [1]): 20
inhibition at 50 µM ([2]; FP): 19.2%
Amplification coefficient 1TA x 1SZ (Mcl-1 [3]): 10

[N-]=[N+]=NS(=O)(=O)c1ccc(CN(CCSc2ccccc2)Cc2ccc(S(=O)(=O)NC(=O)c3ccc(CCc4ccccn4)cc3)cc2)cc1 [SZ9TA17, O=C(NS(C1=CC=C(CN(CC2=CC=C(S(=O)(N=[N+]=[N-])=O)C=C2)CCSC3=CC=CC=C3)C=C1)(=O)=O)C4=CC=C(CCC5=NC=CC=C5)C=C4]
Amplification coefficient 5TA x 38SZ (Mcl-1 [1]): 22
IC50 [2, 4]: 20.4 µM
inhibition at 50 µM ([2]; FP): > 99%
Amplification coefficient 1TA x 1SZ (Mcl-1 [3]): 18

O=C(NS(=O)(=O)c1ccc(CN(CCSc2ccccc2)Cc2ccc3c(c2)OCO3)cc1)c1cccc(NCCc2ccccc2)c1 [SZ31TA44, O=C(NS(C1=CC=C(CN(CC2=CC(OCO3)=C3C=C2)CCSC4=CC=CC=C4)C=C1)(=O)=O)C5=CC(NCCC6=CC=CC=C6)=CC=C5]
Amplification coefficient 5TA x 38SZ (Mcl-1 [1]): 10
inhibition at 50 µM ([2]; FP): 36.5%
Amplification coefficient 1TA x 1SZ (Mcl-1 [3]): 12

NS(=O)(=O)c1ccc(CN(CCSc2ccccc2)Cc2ccc(S(=O)(=O)NC(=O)CC3Sc4ccccc4NC3=O)cc2)cc1 (stereo not shown) [SZ10TA34, O=C(NS(C1=CC=C(CN(CCSC2=CC=CC=C2)CC3=CC=C(S(=O)(N)=O)C=C3)C=C1)(=O)=O)CC4SC5=CC=CC=C5NC4=O]
Amplification coefficient 5TA x 38SZ (Mcl-1 [1]): 7
inhibition at 50 µM ([2]; FP): 64.1%
Amplification coefficient 1TA x 1SZ (Mcl-1 [3]): 6

Cn1cc(C(=O)C2CCCCC2)c2cc(C(=O)NS(=O)(=O)c3ccc(-c4ccc(C(C)(C)C)cc4)cc3)ccc21 [SZ11TA40, O=C(NS(C1=CC=C(C2=CC=C(C(C)(C)C)C=C2)C=C1)(=O)=O)C3=CC(C(C(C4CCCCC4)=O)=CN5C)=C5C=C3]
Amplification coefficient 5TA x 38SZ (Mcl-1 [1]): 8
IC50 [2, 4]: 21.9 µM
inhibition at 50 µM ([2]; FP): > 99%
Amplification coefficient 1TA x 1SZ (Mcl-1 [3]): 5.5

O=C(NS(=O)(=O)c1ccc(-c2ccc(C(F)(F)F)cc2)cc1)c1cccc(NCCc2ccccc2)c1 [SZ16TA44, O=C(NS(C1=CC=C(C2=CC=C(C(F)(F)F)C=C2)C=C1)(=O)=O)C3=CC(NCCC4=CC=CC=C4)=CC=C3]
Amplification coefficient 5TA x 38SZ (Mcl-1 [1]): 12
IC50 [2, 4]: 31.5 µM
inhibition at 50 µM ([2]; FP): 98.1%
Amplification coefficient 1TA x 1SZ (Mcl-1 [3]): 4
